According to patent US20100298141A1, “SUBSTITUTED PYRIDINE N-OXIDE HERBICIDES” (E. I. DU PONT DE NEMOURS AND COMPANY, priority 2007, published 2010):

Experiments:
Assay in all cases: Test F preemergence test
[1] = system: large crabgrass; format: in vivo, Digitaria sanguinalis; conditions: scale 0 to 100
In short: (§1)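 Compounds in a non-phytotoxic solvent formulation with surfactant were applied before emergence after sowing, or, for sugarcane, also postemergence. Evaluation was visual, against controls, after 14 to 21 greenhouse days.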

[2] = system: green foxtail; format: in vivo, Setaria viridis; conditions: scale 0 to 100
In short: as §1

[3] = system: goosegrass; format: in vivo, Eleusine indica; conditions: scale 0 to 100
In short: as §1

[4] = system: johnsongrass; format: in vivo, Sorghum halepense; conditions: scale 0 to 100
In short: as §1

[5] = system: pitted morningglory; format: in vivo, Ipomoea lacunosa; conditions: scale 0 to 100
In short: as §1

[6] = system: purple nutsedge; format: in vivo, Cyperus rotundus; conditions: scale 0 to 100
In short: as §1

[7] = system: common ragweed; format: in vivo, Ambrosia elation; conditions: scale 0 to 100
In short: as §1

[8] = system: barnyardgrass; format: in vivo, Echinochloa crus-galli
In short: as §1

[9] = system: southern sandbur; format: in vivo, Cenchrus echinatus; conditions: scale 0 to 100
In short: as §1

[10] = system: Italian ryegrass; format: in vivo, Lolium multiflorum; conditions: scale 0 to 100
In short: as §1

[11] = system: common purslane; format: in vivo, Portulaca oleracea; conditions: scale 0 to 100
In short: as §1

[12] = system: common groundsel; format: in vivo, Senecio vulgaris; conditions: scale 0 to 100
In short: as §1

[13] = system: annual bluegrass; format: in vivo, Poa annua; conditions: scale 0 to 100
In short: as §1

[14] = system: naked crabgrass; format: in vivo, Digitaria nuda; conditions: scale 0 to 100
In short: as §1

[15] = system: itchgrass; format: in vivo, Rottboellia cochinchinensis; conditions: scale 0 to 100
In short: as §1

[16] = system: field bindweed; format: in vivo, Convolvulus arvensis; conditions: scale 0 to 100
In short: as §1

[17] = Preemergence, 31 g ai/ha, scale 0 to 100

SMILES: Cn1nc(C(F)(F)F)c(CS(=O)(=O)c2cccc[n+]2[O-])c1OC(F)F [Compound 4]
- Crabgrass, Large plant response rating ([1]; 62 g ai/ha, Preemergence): 100
- Plant response rating, Crabgrass, Large ([1]; Preemergence, 16 g ai/ha): 70
- Plant response rating, Crabgrass, Large ([1]; Preemergence, 31 g ai/ha): 70
- Plant response rating, Foxtail, Green ([2]; 8 g ai/ha, preemergence): 0
- Foxtail, Green plant response rating ([2]; 62 g ai/ha, Preemergence): 95
- Plant response rating, Foxtail, Green ([2]; Preemergence, 16 g ai/ha): 35
- Plant response rating, Foxtail, Green ([2]; Preemergence, 31 g ai/ha): 70
- Plant response rating, Goosegrass ([3]; 8 g ai/ha, preemergence): 0
- Goosegrass plant response rating ([3]; 62 g ai/ha, Preemergence): 98
- Plant response rating, Goosegrass ([3]; Preemergence, 16 g ai/ha): 80
- Plant response rating, Goosegrass ([3]; Preemergence, 31 g ai/ha): 98
- Plant response rating, Johnsongrass ([4]; 8 g ai/ha, preemergence): 5
- Johnsongrass plant response rating ([4]; 62 g ai/ha, Preemergence): 95
- Plant response rating, Johnsongrass ([4]; Preemergence, 16 g ai/ha): 75
- Plant response rating, Johnsongrass ([4]; Preemergence, 31 g ai/ha): 90
- Plant response rating, Morningglory ([5]; 8 g ai/ha, preemergence): 0
- Morningglory plant response rating ([5]; 62 g ai/ha, Preemergence): 0
- Plant response rating, Morningglory ([5]; Preemergence, 16 g ai/ha): 0
- Plant response rating, Morningglory ([5]; Preemergence, 31 g ai/ha): 0
- Plant response rating, Purple Nutsedge ([6]; 8 g ai/ha, preemergence): 0
- Purple Nutsedge plant response rating ([6]; 62 g ai/ha, Preemergence): 80
- Plant response rating, Purple Nutsedge ([6]; Preemergence, 16 g ai/ha): 65
- Plant response rating, Purple Nutsedge ([6]; Preemergence, 31 g ai/ha): 65
- Plant response rating, Ragweed ([7]; 8 g ai/ha, preemergence): 0
- Ragweed plant response rating ([7]; 62 g ai/ha, Preemergence): 90
- Plant response rating, Ragweed ([7]; Preemergence, 16 g ai/ha): 65
- Plant response rating, Ragweed ([7]; Preemergence, 31 g ai/ha): 75
- Plant response rating, Barnyardgrass ([8]; 8 g ai/ha, preemergence, scale 0 to 100): 10
- Barnyardgrass plant response rating ([8]; 62 g ai/ha, Preemergence, scale 0 to 100): 80
- Plant response rating, Barnyardgrass ([8]; Preemergence, 16 g ai/ha, scale 0 to 100): 65
- Plant response rating, Barnyardgrass [8, 17]: 80
- Plant response rating, Sandbur ([9]; 8 g ai/ha, preemergence): 25
- Plant response rating, Sandbur ([9]; 16 g ai/ha, preemergence): 90
- Sandbur plant response rating ([9]; 62 g ai/ha, Preemergence): 100
- Plant response rating, Sandbur ([9]; Preemergence, 31 g ai/ha): 100
- Plant response rating, Ryegrass, Italian ([10]; 8 g ai/ha, preemergence): 0
- Ryegrass, Italian plant response rating ([10]; 62 g ai/ha, Preemergence): 65
- Plant response rating, Ryegrass, Italian ([10]; Preemergence, 16 g ai/ha): 0
- Plant response rating, Ryegrass, Italian ([10]; Preemergence, 31 g ai/ha): 65
- Plant response rating, Purslane ([11]; 8 g ai/ha, preemergence): 15
- Purslane plant response rating ([11]; 62 g ai/ha, Preemergence): 20
- Plant response rating, Purslane ([11]; Preemergence, 16 g ai/ha): 15
- Plant response rating, Purslane ([11]; Preemergence, 31 g ai/ha): 20
- Plant response rating, Groundsel ([12]; 8 g ai/ha, preemergence): 10
- Groundsel plant response rating ([12]; 62 g ai/ha, Preemergence): 100
- Plant response rating, Groundsel ([12]; Preemergence, 16 g ai/ha): 25
- Plant response rating, Groundsel ([12]; Preemergence, 31 g ai/ha): 100
- Plant response rating, Bluegrass ([13]; 8 g ai/ha, preemergence): 0
- Bluegrass plant response rating ([13]; 62 g ai/ha, Preemergence): 75
- Plant response rating, Bluegrass ([13]; Preemergence, 16 g ai/ha): 0
- Plant response rating, Bluegrass ([13]; Preemergence, 31 g ai/ha): 20
- Plant response rating, Crabgrass, Naked ([14]; 8 g ai/ha, preemergence): 70
- Crabgrass, Naked plant response rating ([14]; 62 g ai/ha, Preemergence): 100
- Plant response rating, Crabgrass, Naked ([14]; Preemergence, 16 g ai/ha): 70
- Plant response rating, Crabgrass, Naked ([14]; Preemergence, 31 g ai/ha): 100
- Plant response rating, Itchgrass ([15]; 8 g ai/ha, preemergence): 0
- Itchgrass plant response rating ([15]; 62 g ai/ha, Preemergence): 100
- Plant response rating, Itchgrass ([15]; Preemergence, 16 g ai/ha): 0
- Plant response rating, Itchgrass ([15]; Preemergence, 31 g ai/ha): 35
- Plant response rating, Field Bindweed ([16]; 8 g ai/ha, preemergence): 0
- Field Bindweed plant response rating ([16]; 62 g ai/ha, Preemergence): 0
- Plant response rating, Field Bindweed ([16]; Preemergence, 16 g ai/ha): 0
- Plant response rating, Field Bindweed ([16]; Preemergence, 31 g ai/ha): 0

SMILES: Cn1nc(C(F)(F)F)c(C[S+]([O-])c2ccc(Cl)c[n+]2[O-])c1OCC(F)F (stereo not shown) [Compound 85]
- Plant response rating, Crabgrass, Large ([1]; 16 g ai/ha, preemergence): 60
- Crabgrass, Large plant response rating ([1]; 125 g ai/ha, preemergence): 90
- Plant response rating, Crabgrass, Large ([1]; Preemergence, 62 g ai/ha): 90
- Plant response rating, Crabgrass, Large ([1]; Preemergence, 31 g ai/ha): 70
- Plant response rating, Foxtail, Green ([2]; 16 g ai/ha, preemergence): 35
- Foxtail, Green plant response rating ([2]; 125 g ai/ha, preemergence): 95
- Plant response rating, Foxtail, Green ([2]; Preemergence, 62 g ai/ha): 90
- Plant response rating, Foxtail, Green ([2]; Preemergence, 31 g ai/ha): 70
- Plant response rating, Goosegrass ([3]; 16 g ai/ha, preemergence): 35
- Goosegrass plant response rating ([3]; 125 g ai/ha, preemergence): 100
- Plant response rating, Goosegrass ([3]; Preemergence, 62 g ai/ha): 80
- Plant response rating, Goosegrass ([3]; Preemergence, 31 g ai/ha): 65
- Plant response rating, Johnsongrass ([4]; 16 g ai/ha, preemergence): 40
- Johnsongrass plant response rating ([4]; 125 g ai/ha, preemergence): 98
- Plant response rating, Johnsongrass ([4]; Preemergence, 62 g ai/ha): 90
- Plant response rating, Johnsongrass ([4]; Preemergence, 31 g ai/ha): 75
- Plant response rating, Morningglory ([5]; 16 g ai/ha, preemergence): 0
- Plant response rating, Purple Nutsedge ([6]; 16 g ai/ha, preemergence): 0
- Purple Nutsedge plant response rating ([6]; 125 g ai/ha, preemergence): 65
- Plant response rating, Purple Nutsedge ([6]; Preemergence, 62 g ai/ha): 50
- Plant response rating, Purple Nutsedge ([6]; Preemergence, 31 g ai/ha): 0
- Plant response rating, Ragweed ([7]; 16 g ai/ha, preemergence): 0
- Ragweed plant response rating ([7]; 125 g ai/ha, preemergence): 80
- Plant response rating, Ragweed ([7]; Preemergence, 62 g ai/ha): 80
- Plant response rating, Ragweed ([7]; Preemergence, 31 g ai/ha): 20
- Plant response rating, Barnyardgrass ([8]; 16 g ai/ha, preemergence, scale 0 to 100 (0 no effect, 100 complete control)): 50
- Barnyardgrass plant response rating ([8]; 125 g ai/ha, preemergence, scale 0 to 100): 100
- Plant response rating, Barnyardgrass ([8]; Preemergence, 62 g ai/ha, scale 0 to 100): 90
- Plant response rating, Barnyardgrass [8, 17]: 80
- Plant response rating, Sandbur ([9]; 16 g ai/ha, preemergence): 10
- Sandbur plant response rating ([9]; 125 g ai/ha, preemergence): 100
- Plant response rating, Sandbur ([9]; Preemergence, 62 g ai/ha): 100
- Plant response rating, Sandbur ([9]; Preemergence, 31 g ai/ha): 70
- Plant response rating, Ryegrass, Italian ([10]; 16 g ai/ha, preemergence): 65
- Ryegrass, Italian plant response rating ([10]; 125 g ai/ha, preemergence): 100
- Plant response rating, Ryegrass, Italian ([10]; Preemergence, 62 g ai/ha): 100
- Plant response rating, Ryegrass, Italian ([10]; Preemergence, 31 g ai/ha): 65
- Plant response rating, Purslane ([11]; 16 g ai/ha, preemergence): 0
- Purslane plant response rating ([11]; 125 g ai/ha, preemergence): 60
- Plant response rating, Purslane ([11]; Preemergence, 62 g ai/ha): 60
- Plant response rating, Purslane ([11]; Preemergence, 31 g ai/ha): 25
- Plant response rating, Groundsel ([12]; 16 g ai/ha, preemergence): 0
- Groundsel plant response rating ([12]; 125 g ai/ha, preemergence): 65
- Plant response rating, Groundsel ([12]; Preemergence, 62 g ai/ha): 0
- Plant response rating, Groundsel ([12]; Preemergence, 31 g ai/ha): 0
- Plant response rating, Bluegrass ([13]; 16 g ai/ha, preemergence): 75
- Bluegrass plant response rating ([13]; 125 g ai/ha, preemergence): 100
- Plant response rating, Bluegrass ([13]; Preemergence, 62 g ai/ha): 95
- Plant response rating, Bluegrass ([13]; Preemergence, 31 g ai/ha): 95
- Plant response rating, Crabgrass, Naked ([14]; 16 g ai/ha, preemergence): 75
- Crabgrass, Naked plant response rating ([14]; 125 g ai/ha, preemergence): 95
- Plant response rating, Crabgrass, Naked ([14]; Preemergence, 62 g ai/ha): 90
- Plant response rating, Crabgrass, Naked ([14]; Preemergence, 31 g ai/ha): 80
- Plant response rating, Itchgrass ([15]; 16 g ai/ha, preemergence): 25
- Itchgrass plant response rating ([15]; 125 g ai/ha, preemergence): 90
- Plant response rating, Itchgrass ([15]; Preemergence, 62 g ai/ha): 70
- Plant response rating, Itchgrass ([15]; Preemergence, 31 g ai/ha): 70
- Plant response rating, Field Bindweed ([16]; 16 g ai/ha, preemergence): 0
- Field Bindweed plant response rating ([16]; 125 g ai/ha, preemergence): 35
- Plant response rating, Field Bindweed ([16]; Preemergence, 62 g ai/ha): 20
- Plant response rating, Field Bindweed ([16]; Preemergence, 31 g ai/ha): 0
